Test results from patent US10939901B2, “Customizable anchorage devices and methods of use” (TYRX, Inc., priority 2016, dated 2021).

Assays:
myofibroblast formation = conditions: Ajmal et al. (2003); cited from earlier work
[1] = Stability of rifampin and minocycline in PBS with and without tranexamic acid; format: physicochemical
Experimental: To determine the stability of active pharmaceutical ingredients, such as, for example, one or more of active pharmaceutical ingredients 26 when combined with a hemostatic agent, such as, for example, one or more of hemostatic agents 24, mixtures of rifampin and minocycline were prepared in phosphate-buffered saline (PBS) with and without tranexamic acid (TXA). The mixtures were tested both at room temperature (RT) (about 23° C.) and at 37° C.

[2] = In vitro elution of rifampin and minocycline from p22-27.5 polymers with TXA in the release media; format: physicochemical; conditions: PBS pH 7.4 without TXA, with TXA 0.05 mg/mL or 5 mg/mL, over 25 hours
Excerpt: To determine the elution of active pharmaceutical ingredients, such as, for example, one or more of active pharmaceutical ingredients 26 from a polymer, such as, for example, one of the polymers discussed herein, in vitro when the active pharmaceutical ingredients are combined with a hemostatic agent, such as, for example, one or more of hemostatic agents 24, in vitro elution of rifampin and minocycline from polymers in the p22-27.5 family containing different amounts of tranexamic acid was evaluated in a PBS buffer over 25 hours. B1=PBS pH 7.4; B2=PBS, pH 7.4+TXA (0.05 mg/mL); B3=PBS, pH 7.4+TXA (5 mg/mL).

blood clotting = assay: Time required to induce blood clotting in vitro; format: biochemical
Experimental: Tests were conducted to compare the time required to induce blood clotting in vitro when different amounts of hemostatic agent is administered in the presence of TYRX (degradable mesh coated with P22-27.5 containing rifampin and minocycline), as shown in FIG. 23.
Tests were conducted to compare the time required for different hemostatic agents to induce blood clotting in vitro versus the time required to induce blood clotting in vitro when no hemostatic agent is administered. In particular, the time required to induce blood clotting was plotted for blood alone, TYRX, Surgicel, TYRX with 1.6 mg of TXA, 1.2 mg of TXA alone and TYRX with 200 mg of TXA. In this example, TYRX refers to a Glycoprene mesh that is coated with P22-27.5 (a polymer in the P22-X family) containing Rifampin and Minocycline.

O=S(=O)([O-])CCS.[Na+] [MESNA, sodium 2-mercaptoethane sulfonate]
myofibroblast formation (myofibroblast formation): diminish myofibroblast formation

CO[C@H]1/C=C/O[C@@]2(C)Oc3c(C)c(O)c4c(O)c(c(/C=N/N5CCN(C)CC5)c(O)c4c3C2=O)NC(=O)/C(C)=C\C=C\[C@H](C)[C@H](O)[C@@H](C)[C@@H](O)[C@@H](C)[C@H](OC(C)=O)[C@@H]1C [rifampin]
percentage area of rifampin, mixtures with versus without tranexamic acid ([1]; RT (about 23° C.) and 37° C., regardless of the temperature): substantially the same
elution rate from p22-27.5 polymer [2]: not affected by the presence of TXA

NC[C@H]1CC[C@H](C(=O)O)CC1 [tranexamic acid]
effect on the stability of rifampin and minocycline ([1]; RT and 37° C.): does not negatively affect the stability of rifampin and minocycline
Clotting time (blood clotting; higher amounts of TXA (1.6 mg TXA vs 200 mg of TXA) in the presence of TYRX): increased
time required to induce blood clotting (blood clotting; in vitro, 1.2 mg of TXA alone): about 19 minutes
